Test results: publication PMC11012124, “Synthesis of Novel Triazine-Based Chalcones and 8,9-dihydro-7H-pyrimido[4,5-b][1,4]diazepines as Potential Leads in the Search of Anticancer, Antibacterial and Antifungal Agents” (International Journal of Molecular Sciences, 2024)

Tests used:
[1] = Hemolytic activity, spectrophotometric; type: cell-based, human; settings: human, human red blood cells (huRBC), 5% hematocrit, 200 μg/mL, 37 °C
CCRF-CEM = test: cells; settings: Homo sapiens, 48 h; for CC50: read-out: LC50
K-562 = test: cells; settings: Homo sapiens, K562, 48 h; for GI50: K-562, 48 h; for CC50: read-out: LC50
SR = test: cells; settings: Homo sapiens, 48 h; for CC50: read-out: LC50
EKVX = test: cells; settings: Homo sapiens, 48 h; for CC50: read-out: LC50
HOP-62 = test: cells; settings: Homo sapiens, HOP-62, 48 h; for CC50: read-out: LC50
NCI-H322M = test: cells; settings: Homo sapiens, 48 h; for CC50: read-out: LC50
HCC-2998 = test: cells; settings: Homo sapiens, HCC 2998, 48 h; for CC50: read-out: LC50
SW-620 = test: cells; settings: Homo sapiens, SW-620, 48 h; for CC50: read-out: LC50
SF-268 = test: cells; settings: Homo sapiens, SF-268, 48 h; for CC50: read-out: LC50
SNB-19 = test: cells; settings: Homo sapiens, SNB-19, 48 h; for CC50: read-out: LC50
MALME-3M = test: cells; settings: Homo sapiens, 48 h; for CC50: read-out: LC50
MDA-MB-435 = test: cells; settings: Homo sapiens, MDA-MB-435, 48 h; for CC50: read-out: LC50
SK-MEL-28 = test: cells; settings: Homo sapiens, SK-MEL-28, 48 h; for CC50: read-out: LC50
UACC-62 = test: cells; settings: Homo sapiens, UACC-62, 48 h; for CC50: read-out: LC50
IGROV1 = test: cells; settings: Homo sapiens, IGROV-1, 48 h; for CC50: read-out: LC50
OVCAR-8 = test: cells; settings: Homo sapiens, OVCAR-8, 48 h; for CC50: read-out: LC50
NCI/ADR-RES = test: cells; settings: Homo sapiens, 48 h; for CC50: read-out: LC50
ACHN = test: cells; settings: Homo sapiens, 48 h; for CC50: read-out: LC50
CAKI-1 = test: cells; settings: Homo sapiens, CAKI-1, 48 h; for CC50: read-out: LC50
RXF 393 = test: cells; settings: Homo sapiens, RXF 393, 48 h; for CC50: read-out: LC50
PC-3 = test: cells; settings: Homo sapiens, PC-3, 48 h; for CC50: read-out: LC50
HS 578T = test: cells; settings: Homo sapiens, 48 h; for CC50: read-out: LC50
BT-549 = test: cells; settings: Homo sapiens, BT-549, 48 h; for CC50: read-out: LC50
OVCAR-3 = test: cells; settings: Homo sapiens, OVCAR-3, 48 h; for CC50: read-out: LC50

SMILES: Nc1nc(N)c2c(n1)NC(c1ccc(Cl)cc1)CC(c1ccc(Nc3nc(NCCO)nc(Nc4ccc(Cl)cc4)n3)cc1)=N2 (stereo not shown) [33e]
- hemolysis at 24 h, 200 µg/mL [1]: 1.2%
- GI50 (CCRF-CEM): 1.14 µM
- CC50 (CCRF-CEM): > 100 µM
- GI50 (K-562): 0.71 µM
- CC50 (K-562): > 100 µM
- GI50 (SR): 0.91 µM
- CC50 (SR): > 100 µM
- GI50 (EKVX): 2.01 µM
- CC50 (EKVX): 28.7 µM
- GI50 (HOP-62): 2.83 µM
- CC50 (HOP-62): 34.5 µM
- GI50 (NCI-H322M): 2.02 µM
- CC50 (NCI-H322M): 16.9 µM
- GI50 (HCC-2998): 1.44 µM
- CC50 (HCC-2998): 5.36 µM
- GI50 (SW-620): 1.62 µM
- CC50 (SW-620): 6.72 µM
- GI50 (SF-268): 4.14 µM
- CC50 (SF-268): > 100 µM
- GI50 (SNB-19): 1.99 µM
- CC50 (SNB-19): 21.4 µM
- GI50 (MALME-3M): 1.75 µM
- GI50 (MDA-MB-435): 1.63 µM
- CC50 (MDA-MB-435): 6.2 µM
- GI50 (SK-MEL-28): 1.73 µM
- CC50 (SK-MEL-28): 5.61 µM
- GI50 (UACC-62): 2.03 µM
- CC50 (UACC-62): 9.06 µM
- GI50 (IGROV1): 1.71 µM
- CC50 (IGROV1): 7.46 µM
- GI50 (OVCAR-8): 1.57 µM
- CC50 (OVCAR-8): 6.81 µM
- GI50 (NCI/ADR-RES): 4.24 µM
- CC50 (NCI/ADR-RES): > 100 µM
- GI50 (ACHN): 4.69 µM
- CC50 (ACHN): > 100 µM
- GI50 (CAKI-1): 5.36 µM
- CC50 (CAKI-1): > 100 µM
- GI50 (RXF 393): 1.54 µM
- CC50 (RXF 393): 5.73 µM
- GI50 (PC-3): 1.93 µM
- CC50 (PC-3): > 100 µM
- GI50 (HS 578T): 2.22 µM
- CC50 (HS 578T): > 100 µM
- GI50 (BT-549): 2.25 µM
- CC50 (BT-549): 23.5 µM

SMILES: CN(C)c1nc(NCCNS(=O)(=O)c2ccc(C(=O)/C=C/c3ccccc3)cc2)nc(N2CCOCC2)n1 [23a]
- hemolysis at 24 h, 200 µg/mL [1]: 0.7%
- GI50 (CCRF-CEM): 4.41 µM
- CC50 (CCRF-CEM): > 100 µM
- GI50 (K-562): 2.19 µM
- CC50 (K-562): > 100 µM
- GI50 (SR): 3.2 µM
- CC50 (SR): > 100 µM
- GI50 (EKVX): 14.7 µM
- CC50 (EKVX): 63.8 µM
- GI50 (HOP-62): 16.4 µM
- CC50 (HOP-62): 62.7 µM
- GI50 (NCI-H322M): 14.8 µM
- CC50 (NCI-H322M): 56.5 µM
- GI50 (HCC-2998): 16.7 µM
- CC50 (HCC-2998): 57.7 µM
- GI50 (SW-620): 3.41 µM
- CC50 (SW-620): 42.7 µM
- GI50 (SF-268): 13.7 µM
- CC50 (SF-268): 70.1 µM
- GI50 (SNB-19): 14.8 µM
- CC50 (SNB-19): 57.3 µM
- GI50 (MALME-3M): 15.2 µM
- CC50 (MALME-3M): 56.5 µM
- GI50 (MDA-MB-435): 14.7 µM
- CC50 (MDA-MB-435): 54.4 µM
- GI50 (SK-MEL-28): 17.2 µM
- CC50 (SK-MEL-28): 63.9 µM
- GI50 (UACC-62): 12 µM
- CC50 (UACC-62): 52.3 µM
- GI50 (IGROV1): 15.3 µM
- CC50 (IGROV1): 66.4 µM
- GI50 (OVCAR-3): 15.3 µM
- CC50 (OVCAR-3): 53.4 µM
- GI50 (OVCAR-8): 16.4 µM
- CC50 (OVCAR-8): 61.7 µM
- GI50 (ACHN): 18.2 µM
- CC50 (ACHN): 72.2 µM
- GI50 (CAKI-1): 12.2 µM
- CC50 (CAKI-1): 49.9 µM
- GI50 (RXF 393): 7.87 µM
- CC50 (RXF 393): 55.8 µM
- GI50 (PC-3): 8.63 µM
- CC50 (PC-3): 58.9 µM
- GI50 (HS 578T): 17.1 µM
- CC50 (HS 578T): > 100 µM
- GI50 (BT-549): 11.2 µM
- CC50 (BT-549): 50 µM

SMILES: COc1cc(/C=C/C(=O)c2ccccc2)ccc1Oc1nc(Nc2ccc(F)cc2)nc(N(C)C)n1 [21a]
- hemolysis at 24 h, 200 µg/mL [1]: 2%
- GI50 (CCRF-CEM): 3.38 µM
- CC50 (CCRF-CEM): > 100 µM
- GI50 (K-562): 3.57 µM
- CC50 (K-562): > 100 µM
- GI50 (SR): 2.9 µM
- CC50 (SR): > 100 µM
- GI50 (EKVX): 4.73 µM
- CC50 (EKVX): > 100 µM
- GI50 (HOP-62): 26.6 µM
- CC50 (HOP-62): > 100 µM
- GI50 (NCI-H322M): 28.7 µM
- CC50 (NCI-H322M): > 100 µM
- GI50 (HCC-2998): 12.9 µM
- CC50 (HCC-2998): > 100 µM
- GI50 (SW-620): 1.81 µM
- CC50 (SW-620): 8.7 µM
- GI50 (SF-268): 12.2 µM
- CC50 (SF-268): > 100 µM
- GI50 (SNB-19): 10.2 µM
- CC50 (SNB-19): 74.9 µM
- GI50 (MALME-3M): 15.9 µM
- CC50 (MALME-3M): 98.8 µM
- GI50 (MDA-MB-435): 7.39 µM
- CC50 (MDA-MB-435): 94.3 µM
- GI50 (SK-MEL-28): 12.2 µM
- CC50 (SK-MEL-28): 84.6 µM
- GI50 (UACC-62): 4.99 µM
- CC50 (UACC-62): 79.4 µM
- GI50 (IGROV1): 18.7 µM
- CC50 (IGROV1): > 100 µM
- GI50 (OVCAR-3): 11.8 µM
- CC50 (OVCAR-3): > 100 µM
- GI50 (OVCAR-8): 5.9 µM
- CC50 (OVCAR-8): 97.6 µM
- GI50 (NCI/ADR-RES): 7.04 µM
- CC50 (NCI/ADR-RES): 58.5 µM
- GI50 (ACHN): 8.29 µM
- CC50 (ACHN): > 100 µM
- GI50 (CAKI-1): 5.72 µM
- CC50 (CAKI-1): > 100 µM
- GI50 (PC-3): 10 µM
- CC50 (PC-3): > 100 µM
- GI50 (HS 578T): 5.44 µM
- CC50 (HS 578T): > 100 µM
- GI50 (BT-549): 12 µM
- CC50 (BT-549): 68.1 µM

SMILES: COc1cc(/C=C/C(=O)c2ccc(C)cc2)ccc1Oc1nc(Nc2ccc(F)cc2)nc(N(C)C)n1 [21b]
- hemolysis at 24 h, 200 µg/mL [1]: 13%
- GI50 (CCRF-CEM): 3.92 µM
- CC50 (CCRF-CEM): > 100 µM
- GI50 (K-562): 4.2 µM
- CC50 (K-562): > 100 µM
- GI50 (SR): 3.25 µM
- CC50 (SR): > 100 µM
- GI50 (EKVX): 6.71 µM
- CC50 (EKVX): > 100 µM
- GI50 (HOP-62): 32.2 µM
- CC50 (HOP-62): > 100 µM
- GI50 (NCI-H322M): 51.9 µM
- CC50 (NCI-H322M): > 100 µM
- GI50 (HCC-2998): 20.5 µM
- CC50 (HCC-2998): > 100 µM
- GI50 (SW-620): 2.36 µM
- CC50 (SW-620): 20.1 µM
- GI50 (SF-268): 13.9 µM
- CC50 (SF-268): > 100 µM
- GI50 (SNB-19): 11.1 µM
- CC50 (SNB-19): 67.3 µM
- GI50 (MALME-3M): 15.4 µM
- CC50 (MALME-3M): 72.3 µM
- GI50 (MDA-MB-435): 11.4 µM
- CC50 (MDA-MB-435): 70.4 µM
- GI50 (SK-MEL-28): 12.3 µM
- CC50 (SK-MEL-28): 79.6 µM
- GI50 (UACC-62): 10.1 µM
- CC50 (UACC-62): > 100 µM
- GI50 (IGROV1): 13.8 µM
- CC50 (IGROV1): 99.1 µM
- GI50 (OVCAR-3): 13 µM
- CC50 (OVCAR-3): > 100 µM
- GI50 (OVCAR-8): 7.19 µM
- CC50 (OVCAR-8): > 100 µM
- GI50 (NCI/ADR-RES): 5.97 µM
- CC50 (NCI/ADR-RES): > 100 µM
- GI50 (ACHN): 9.58 µM
- CC50 (ACHN): 96.5 µM
- GI50 (CAKI-1): 6.43 µM
- CC50 (CAKI-1): > 100 µM
- GI50 (PC-3): 8.85 µM
- CC50 (PC-3): > 100 µM
- GI50 (HS 578T): 7.24 µM
- CC50 (HS 578T): > 100 µM
- GI50 (BT-549): 6.27 µM
- CC50 (BT-549): 91.3 µM
